This passage reports Ki and Ratio Ki results from ChEMBL document CHEMBL1151757, “Synthesis, radiosynthesis, and biological evaluation of fluorine-18-labeled 2beta-carbo(fluoroalkoxy)-3beta-(3'-((Z)-2-haloethenyl)phenyl)nortropanes: candidate radioligands for in vivo imaging of the serotonin transporter with positron emission tomography” (J Med Chem, 2008).

What all share (type): cell-based
The target in assay [1] is Sodium-dependent serotonin transporter (Homo sapiens, UniProt P31645). In words: Displacement of [3H](R,S)citalopram.HBr from human SERT transfected in human HEK293 cells.
Assay [2] has as its target Sodium-dependent dopamine transporter (Homo sapiens, UniProt Q01959). The experiment in a line: Displacement of [3H]RTI-55 from human DAT transfected in human HEK293 cells. For orientation: Loss of bound radioactivity is the signal in a displacement assay; it reports binding, not function.
The target in assay [3] is Sodium-dependent noradrenaline transporter (Homo sapiens, UniProt P23975). The experiment in a line: Displacement of [3H]nisoxetine from human NET transfected in human HEK293 cells.
Assay [4] relates to HEK293. In words: Selectivity for human DAT over human SERT transfected in human HEK293 cells.
Assay [5] concerns HEK293. The experiment in a line: Selectivity for human NET over human SERT transfected in human HEK293 cells.

Sequence of Sodium-dependent serotonin transporter (P31645 whole entry): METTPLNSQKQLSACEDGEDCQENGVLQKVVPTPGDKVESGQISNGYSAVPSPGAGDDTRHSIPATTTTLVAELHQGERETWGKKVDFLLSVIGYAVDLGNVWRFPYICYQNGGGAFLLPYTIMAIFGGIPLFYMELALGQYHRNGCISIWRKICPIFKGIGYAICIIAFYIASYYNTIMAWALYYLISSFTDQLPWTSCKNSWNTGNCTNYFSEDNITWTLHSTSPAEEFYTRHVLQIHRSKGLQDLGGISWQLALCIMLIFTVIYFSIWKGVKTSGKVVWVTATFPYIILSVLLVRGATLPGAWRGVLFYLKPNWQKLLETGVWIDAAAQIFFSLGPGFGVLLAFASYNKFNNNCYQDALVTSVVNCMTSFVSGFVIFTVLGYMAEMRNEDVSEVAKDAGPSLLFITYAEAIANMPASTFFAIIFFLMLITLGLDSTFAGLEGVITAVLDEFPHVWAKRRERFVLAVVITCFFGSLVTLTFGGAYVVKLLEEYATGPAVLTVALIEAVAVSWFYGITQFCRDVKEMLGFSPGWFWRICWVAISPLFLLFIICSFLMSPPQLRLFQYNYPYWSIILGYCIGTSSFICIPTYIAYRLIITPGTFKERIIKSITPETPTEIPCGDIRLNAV
Sequence of Sodium-dependent dopamine transporter (Q01959 whole entry): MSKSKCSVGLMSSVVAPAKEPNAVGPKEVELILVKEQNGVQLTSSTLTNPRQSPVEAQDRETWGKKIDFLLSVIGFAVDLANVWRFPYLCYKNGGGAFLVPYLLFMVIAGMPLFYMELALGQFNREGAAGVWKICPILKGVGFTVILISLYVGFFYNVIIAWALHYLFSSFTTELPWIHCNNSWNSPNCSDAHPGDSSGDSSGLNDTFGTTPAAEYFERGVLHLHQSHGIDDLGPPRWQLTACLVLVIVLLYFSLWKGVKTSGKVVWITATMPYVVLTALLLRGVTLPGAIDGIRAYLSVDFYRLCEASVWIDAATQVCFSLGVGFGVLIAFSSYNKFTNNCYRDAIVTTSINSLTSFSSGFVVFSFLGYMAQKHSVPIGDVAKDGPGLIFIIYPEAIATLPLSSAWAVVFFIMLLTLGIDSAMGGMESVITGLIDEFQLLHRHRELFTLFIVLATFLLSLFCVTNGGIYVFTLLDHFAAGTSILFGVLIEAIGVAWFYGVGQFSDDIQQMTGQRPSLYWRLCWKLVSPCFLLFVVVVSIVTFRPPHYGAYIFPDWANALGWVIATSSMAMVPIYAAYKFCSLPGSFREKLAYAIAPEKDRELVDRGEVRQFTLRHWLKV
Sequence of Sodium-dependent noradrenaline transporter (P23975 whole entry): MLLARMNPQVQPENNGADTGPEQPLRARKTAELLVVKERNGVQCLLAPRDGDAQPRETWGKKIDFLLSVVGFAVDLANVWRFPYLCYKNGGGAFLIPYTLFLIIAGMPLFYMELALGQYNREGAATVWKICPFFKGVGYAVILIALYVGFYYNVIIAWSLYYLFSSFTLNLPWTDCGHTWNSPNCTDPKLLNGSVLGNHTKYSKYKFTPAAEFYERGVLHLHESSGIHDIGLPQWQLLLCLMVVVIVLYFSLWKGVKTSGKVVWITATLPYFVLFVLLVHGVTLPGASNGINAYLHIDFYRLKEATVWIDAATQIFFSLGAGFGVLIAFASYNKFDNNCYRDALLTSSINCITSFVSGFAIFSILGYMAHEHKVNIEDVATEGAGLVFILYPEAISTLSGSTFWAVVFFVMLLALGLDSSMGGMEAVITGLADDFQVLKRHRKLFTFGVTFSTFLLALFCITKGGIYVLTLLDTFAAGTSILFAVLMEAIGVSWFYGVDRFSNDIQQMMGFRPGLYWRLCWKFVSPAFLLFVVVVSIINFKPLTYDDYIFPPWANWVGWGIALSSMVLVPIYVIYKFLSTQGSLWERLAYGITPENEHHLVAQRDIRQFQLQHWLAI

Usually Ki stands for a measure of affinity in units of concentration, obtained from inhibition or displacement. Higher therefore signals a looser hold on the target. Consider `O=C(OCCCF)C1C2CCC(CC1c1cccc(/C=C\I)c1)N2` (stereo not given), for which the Ki in assay [1] is 0.00026 µM; in assay [2] it was 0.18 µM; in assay [3], 0.0675 µM. In addition, the Ratio Ki with HEK293 [4] worked out at 691; in the assay with HEK293 [5] it was 260.
Take `O=C(OCCF)C1C2CCC(CC1c1cccc(/C=C/I)c1)N2` (trans isomer): the inhibition constant (Ki) in assay [1] was determined as 0.0152 µM; in assay [2], 0.274 µM; in assay [3], 1.18 µM. Further, the Ratio Ki was found to be 18 in the assay with HEK293 [4] and 78 in the assay on HEK293 [5].
For `O=C(OCCF)C1C2CCC(CC1c1cccc(/C=C\Br)c1)N2` (stereo not given), in that order: 0.00033 µM, 0.0355 µM, 0.101 µM, 108 and 307.
For the molecule `O=C(OCCCF)C1C2CCC(CC1c1cccc(/C=C\Br)c1)N2` (stereo not given), the Ki in assay [1] is 0.00033 µM; in assay [2] it was 0.119 µM; in assay [3] it was 0.0302 µM. For the same molecule, the Ratio Ki worked out at 360 with HEK293 [4] and 92 with HEK293 [5].
Take `O=C(OCCF)C1C2CCC(CC1c1cccc(/C=C\I)c1)N2` (stereo not given): the Ki in assay [1] was 0.00043 µM; in assay [2], 0.0876 µM; in assay [3], 0.11 µM. For the same molecule, the Ratio Ki is 204 with HEK293 [4] and 256 in the assay with HEK293 [5].
